Measured values: article PMC12392461, “Beyond Estrogenicity: A Comparative Assessment of Bisphenol A and Its Alternatives in In Vitro Assays Questions Safety of Replacements” (Environmental Science & Technology, 2025)
Where two headings read alike, the source gives them in different places.

Legend:
[1] = test system: Antioxidant response element; assay: MitoOxTox: oxidative stress response in AREc32; settings: for EC10, linear / logEC10: Bioassay ARE, dosing range all; for EC10, linear: linear model fit; for logEC10: log-logistic model fit; for EC10: Arec32, read-out: EC10, linear transformed
Text: (§1) All bioassay media components and the ERα-UAS-bla GripTite and PPARγ-UAS-bla cells were obtained from Thermo Fisher Scientific (Waltham, MA, USA). AREc32 reporter gene cells based on MCF7 were provided by C. Roland Wolf (Cancer Research UK); AhR CALUX cells (H4L7.5c2 derived from H4IIe) were provided by Michael Denison (UC Davis, USA); and SH-SY5Y cells were purchased from Sigma-Aldrich.
(§2) Cell culture conditions and bioassay protocols including response detection are provided in Text S2.1–2.4 and Table S3. − Cell viability was determined from cell confluency using an IncuCyte S3 Live-Cell Analysis System (Sartorius AG, Essen, Germany) before and after exposure, except for SH-SY5Y cells (live–dead staining with Nuclear Green LcS1 and propidium iodide, Abcam, UK). For metabolic activation experiments, cell viability was assessed using the ToxBLAzer DualScreen Kit (Thermo Fisher Scientific) to capture the remaining toxicity in ERα-UAS-bla GripTite after treatment with the aCYP catalyst (details in Text S2.4).
(§3) For ARE, the concentration that triggered an induction ratio of 1.5 (ECIR1.5) was used as the benchmark value, as detailed in Text S2.5. IC10 values also served as a threshold for data analysis in all assays; only concentrations below IC10 were considered when deriving EC10 or ECIR1.5. […]
(§4) S2: Cell culture and bioassays
(§5) S2.1: Cell Culturing Conditions
(§6) All suppliers and sources are given in detail in SI-Excel S3. The bioassay media for the different assays were prepared as follows: Assay medium for ER alpha-UAS-bla GripTite (ERα) and PPAR gamma-UAS-bla 293H (PPARγ) was prepared with 98% Opti-MEM, supplemented with 2% charcoal-stripped FBS, and 100 U/mL penicillin-streptomycin. MitoOxTox and AhR assay medium was comprised of 90% DMEM with GlutaMAX, supplemented with 10% FBS, and 100 U/mL penicillin-streptomycin. Neurotoxicity assay medium consisted of the neurobasal […]
(§7) (1 picture or pasted object on this page, not shown here) […]
(§8) medium, supplemented with 2% B-27 Supplement and 2 mM GlutaMAX Supplement. SH - SY5Y cells were differentiated with 10 µM all-trans retinoic acid prior to the assay.
(§9) S2.2: Cell Seeding and Incubation. For all bioassays, cell suspensions in the respective assay medium were dispensed into each well of 384-well plates using a MultiFlo Dispenser (Biotek, (now Agilent), Winooski, VT, U.S.). After seeding, the plates were incubated at 37° C and 5% CO₂ for […]. The final cell densities and plate types were as follows: Black poly-D-lysine coated 384-well plates (Product No. 354663, Corning Inc., NYC, U.S.) were used for PPARγ:
(§10) 6500 cells/well, ERα: 5000 cells/well. White 384-well plates with a clear bottom (Product No.
(§11) 781098, Greiner, Kremsmünster, Austria) were utilized for the MitoOxTox assay: 2650

[2] = test system: SH-SY5Y cells; settings: for IC10, linear transformed / IC10, linear / logIC10: NOI bioassay cytotoxicity, dosing range all; for IC10, linear: linear model; for logIC10: log-logistic model; for IC10, SH-S5Y5, NOI: cytotoxicity, NOI assay cells;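 on Relative effect potency REPNOI: EC10 of BPA divided by EC10 of the test compound so values above 1 mean more potent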;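 on Specificity ratio (SRbaseline) SRNOI: ratio of predicted baseline cytotoxicity IC10 to the neurite outgrowth inhibition EC10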
Protocol: as §2, with “S2.4). […]” for “S2.4).”
We measured the cytotoxicity of BPA and its alternatives in HEK293H (PPARγ), HEK293T (ERα), H4IIe (AhR CALUX), MCF7 (ARE/MMP), and differentiated SH-SY5Y cells (Table S6). […]
as §8
S2.2: Cell Seeding and Incubation. For all bioassays, cell suspensions in the respective assay medium were dispensed into each well of 384-well plates using a MultiFlo Dispenser (Biotek, (now Agilent), Winooski, VT, U.S.). After seeding, the plates were incubated at 37° C and 5% […]
NYC, U.S.) for AhR: 3250 cells/well. Black Collagen I coated plates were used (Product No.
S2.3: Chemical Dosing and Assay Analysis Procedures. The dosing procedure and high-throughput assay workflow have been described in detail before. 9 The dosing concentrations […]
Stock solutions were then either added directly to the respective cell culture medium or evaporated under nitrogen, followed by replenishment with fresh medium. The final solvent content in each well was kept below 1% for methanol, 0% for acetonitrile.
Dosing plates were prepared as 11 -step serial dilutions using a Hamilton Microlab Star robotic system (Hamilton, Bonaduz, Switzerland), and chemicals were dosed in duplicates by transferring 10 μL twice from the dosing plates to the cell plates . After quantifying cell confluency as described in S2. 4., the exposed cells were incubated at 37° C and 5% CO₂ for an additional 24 h. All chemicals were tested in all assays with at least three independent […]
S2.4: Cell Viability Measurement s and bioanalytical protocols . The confluency as a measure of cell viability was determined with an IncuCyte S3 Live -Cell Analysis System (Sartorius AG, Essen, Germany). With this method the confluency of cells in a microscopy image are normalized to control wells without cells and compared before and after 24 hours of exposure.
This method has been described previously 13. Cell viability of SH-SY5Y cells was measured […]
propidium iodide (PI, Abcam, Cambridge, U.K.).14 Nuclear Green LCS1 is a membrane-permeable dye that stains the nuclei of all cells, whereas PI only enters cells with compromised membrane integrity (non-viable cells). After staining, live cells show green nuclei without red fluorescence, while dead cells display both green and red nuclear fluorescence due to PI […]
intercalation. […]

[3] = test system: SH-SY5Y cells; assay: cells; settings: for EC10: Homo sapiens, SH-SY5Y; for Specificity ratio (SRbaseline) SRNOI: against baseline cytotoxicity; for Relative effect potency REPNOI: relative to BPA
Text: as §1, §2, §3, §4, §5, §6, §7, §8, §9, §10, §11

[4] = read-out: EC10, linear transformed

For `CC(c1ccccc1)(c1ccc(O)cc1)c1ccc(O)cc1` [BPAP, 4,4'-(1-Phenylethylidene)bisphenol], the “EC10, linear” value [1] was “no effect”, the logEC10 [1] was “no effect” and the “IC10, linear transformed” value [2] was 1.06E-04. The “IC10, linear” value [2] was “no cytotoxicity”, the logIC10 [2] was -3.97 and the “IC10, SH-S5Y5, NOI” value [2] was 106 µM. For the same compound, the EC10 ([3]; read-out: EC10, NOI) was 5.12e-05 M, the EC10 ([3]; read-out: EC10, NOI (M)) was 5.12e-05 M and the EC10 ([3]; read-out: EC10, linear) was 4.83e-05 M. The EC10 [3, 4] was 5.09e-05 M and the EC10 ([3]; read-out: logEC10) was 5.13e-05 M.

With `CCC(C)(c1ccc(O)cc1)c1ccc(O)cc1` [BPB, 4,4'-(Butane-2,2-diyl)diphenol] the “EC10, linear” value [1] was “no effect”, the logEC10 [1] was “no effect” and the “IC10, linear transformed” value [2] was 1.67E-04. For the same compound, the “IC10, linear” value [2] was 2.31E-04, the logIC10 [2] was -3.78 and the “Toxic ratio (TR) TRNOI” value ([2]; against baseline cytotoxicity) was 0.10. For the same compound, the “IC10, SH-S5Y5, NOI” value [2] was 167 µM, the EC10 ([3]; read-out: EC10, NOI) was 2.8e-05 M and the EC10 ([3]; read-out: EC10, NOI (M)) was 2.8e-05 M. For the same compound, the EC10 ([3]; read-out: EC10, linear) was 4.03e-05 M, the EC10 [3, 4] was 3.89e-05 M and the EC10 ([3]; read-out: logEC10) was 2.82e-05 M. The “Specificity ratio (SRbaseline) SRNOI” value [3] was 0.59, the “Specificity ratio (SRcytotoxicity) SRNOI” value ([3]; against experimental cytotoxicity) was 5.98 and the “Relative effect potency REPNOI” value [3] was 1.81.

In the case of `CC(c1ccc(O)cc1)c1ccc(O)cc1` [BPE, 4,4′-Ethylidenbisphenol], the EC10 [1] is reported as 3720 µM, the “EC10, linear” value [1] is reported as “no effect” and the logEC10 [1] is reported as “masked by cytotoxicity”. The “IC10, linear transformed” value [2] was 2.79E-04, the “IC10, linear” value [2] was 5.29E-04 and the logIC10 [2] was -3.55. The “IC10, SH-S5Y5, NOI” value [2] was 279 µM, the EC10 ([3]; read-out: EC10, NOI) was 0.000114 M and the EC10 ([3]; read-out: EC10, NOI (M)) was 0.000114 M. It also gave an EC10 ([3]; read-out: EC10, linear) of 0.000136 M, an EC10 [3, 4] of 0.000235 M and an EC10 ([3]; read-out: logEC10) of 0.000115 M.

`Oc1ccc(Cc2ccc(O)cc2)cc1` [BPF, Bis(4-hydroxyphenyl)methane] was tested, and the EC10 [1] was 1470 µM, the “EC10, linear” value [1] was “no effect” and the logEC10 [1] was “masked by cytotoxicity”. For the same compound, the “IC10, linear transformed” value [2] was 5.69E-04, the “IC10, linear” value [2] was 5.56E-04 and the logIC10 [2] was -3.24. The “IC10, SH-S5Y5, NOI” value [2] was 569 µM, the EC10 [3, 4] was 0.000697 M and the “EC10, linear” value ([3]; NOI bioassay, dosing range all, linear model) was “no effect”. For the same compound, the logEC10 ([3]; NOI bioassay, dosing range all, log-logistic model) was “no effect”.

`Oc1ccc(C2(c3ccc(O)cc3)CCCCC2)cc1` [BPZ, 1,1'-Bis(4-hydroxyphenyl)cyclohexane] was tested, and the “IC10, linear transformed” value [2] was 7.89E-05, the “IC10, linear” value [2] was 7.12E-05 and the logIC10 [2] was -4.10. The “IC10, SH-S5Y5, NOI” value [2] was 78.9 µM, the EC10 ([3]; read-out: EC10, NOI) was 3.05e-05 M and the EC10 ([3]; read-out: EC10, NOI (M)) was 3.05e-05 M. For the same compound, the EC10 ([3]; read-out: EC10, linear) was 3.52e-05 M, the EC10 [3, 4] was 4.31e-05 M and the EC10 ([3]; read-out: logEC10) was 3.02e-05 M.

In the case of `CC1(C)[C@H](O)C(C)(C)[C@H]1O` [t-TMCD, trans-2,2,4,4-Tetramethyl-1,3-cyclobutanediol], the EC10 ([3]; read-out: EC10, NOI) is reported as 0.00415 M, the EC10 ([3]; read-out: EC10, NOI (M)) is reported as 0.00415 M and the “Specificity ratio (SRbaseline) SRNOI” value [3] is reported as 0.24. The “Relative effect potency REPNOI” value [3] was 0.0122.
